Source: the supplement of paper PMC10307832

compound: C1CC(C2=C(C1)C3=C(N2)C=CC(=C3)Cl)C(=O)N [Selisistat] + CC(C)C[C@H](NC(=O)[C@H](Cc1ccccc1)NC(=O)c1cnccn1)B(O)O [Bortezomib] (partner 0.002 µM); assay: relative viability (nuclei count vs DMSO), 5 days (fraction); higher = more cells survive; conditions: first compound 4 µM
In short: (§1)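 For relative viability, nuclei counts in treated wells were divided by those in vehicle wells. Lung cancer cell lines had been pin-tool dosed in 1536-well plates the day after seeding and cultured for 5 days, then fixed and stained in one step (final 0.05% Triton X-100, 1% formaldehyde, 1 ug/ml Hoechst) and imaged at 4×. Doses were one drug alone or a fixed anchor-drug dose plus five library-drug doses (not always all listed) in √10 steps, and values are duplicate-plate medians.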

| Cell Line | relative viability |
| --- | --- |
| LOU-NH91 | 0.448 |
| NCI-H2405 | 0.854 |
| HOP-62 | 0.867 |
| NCI-H1299 | 1.05 |
| NCI-H2228 | 0.971 |
| NCI-H1563 | 0.752 |
| ABC-1 | 0.312 |

same assay, conditions: first compound 12.65 µM

| Cell Line | relative viability |
| --- | --- |
| NCI-H1650 | 0.202 |
| EBC-1 | 0.494 |
| NCI-H1703 | 0.266 |
| NCI-H1993 | 1.25 |
| SW 1573 | 1.02 |
| NCI-H838 | 0.878 |
| LCLC-103H | 1.14 |
| NCI-H520 | 0.648 |
| NCI-H2126 | 1.12 |
| EMC-BAC-2 | 1.05 |
| NCI-H2085 | 1.17 |
| Calu-6 | 0.902 |
| HCC-366 | 0.98 |
| NCI-H1666 | 0.739 |
| NCI-H596 | 0.947 |
| NCI-H2087 | 0.806 |
| H3255 | 0.796 |
| COR-L23 | 0.829 |
| COR-L 105 | 0.725 |
| IA-LM | 0.682 |
| LOU-NH91 | 0.511 |
| ChaGo-K-1 | 0.917 |
| NCI-H2405 | 0.997 |
| HOP-62 | 0.624 |
| NCI-H1299 | 1.03 |
| CAL-12T | 0.768 |
| NCI-H2228 | 0.923 |
| NCI-H1563 | 0.789 |
| ABC-1 | 0.383 |

same assay, conditions: first compound 40 µM

| Cell Line | relative viability |
| --- | --- |
| NCI-H727 | 0.864 |
| NCI-H1650 | 0.22 |
| EBC-1 | 0.486 |
| NCI-H1703 | 0.332 |
| NCI-H1993 | 1.23 |
| SW 1573 | 1.03 |
| NCI-H838 | 1.01 |
| LCLC-103H | 1.09 |
| NCI-H520 | 0.738 |
| NCI-H2126 | 1.17 |
| EMC-BAC-2 | 1.04 |
| NCI-H2085 | 1.02 |
| Calu-6 | 0.932 |
| HCC-366 | 1.02 |
| NCI-H1666 | 0.547 |
| NCI-H596 | 1 |
| NCI-H2087 | 0.719 |
| H3255 | 0.883 |
| COR-L23 | 0.863 |
| COR-L 105 | 0.72 |
| IA-LM | 0.881 |
| LOU-NH91 | 0.515 |
| ChaGo-K-1 | 0.821 |
| NCI-H2405 | 0.88 |
| HOP-62 | 0.883 |
| NCI-H1299 | 1.02 |
| CAL-12T | 0.983 |
| NCI-H2228 | 1 |
| NCI-H1563 | 0.581 |
| ABC-1 | 0.267 |

compound: C1CC(C2=C(C1)C3=C(N2)C=CC(=C3)Cl)C(=O)N [Selisistat] + CC(=O)Nc1cccc(-n2c(=O)n(C3CC3)c(=O)c3c(Nc4ccc(I)cc4F)n(C)c(=O)c(C)c32)c1 [Trametinib] (partner 0.02 µM); assay: as above; conditions: first compound 0.4 µM
In short: as §1

| Cell Line | relative viability |
| --- | --- |
| NCI-H522 | 0.651 |
| NCI-H727 | 0.467 |
| NCI-H1650 | 0.564 |
| NCI-H1993 | 0.519 |
| SW 1573 | 0.615 |
| NCI-H838 | 0.592 |
| LCLC-103H | 0.682 |
| NCI-H520 | 0.545 |
| NCI-H2126 | 0.557 |
| EMC-BAC-2 | 0.907 |
| NCI-H2085 | 0.518 |
| HCC-366 | 0.435 |
| NCI-H1666 | 0.839 |
| NCI-H596 | 0.864 |
| LK-2 | 0.994 |
